# Source: patent publication US4902791A, “Nitrosourea derivatives, process for their preparation and medicaments containing them” (Sanofi S.A., priority 1983, dated 1990)
# How the values were obtained:
# [1] = system: L1210 U.S.A.; test: antitumor activity on leukemia L1210 U.S.A., products of examples 33-39, I.P.; assay type: in vivo, mouse
# Protocol: The experiments were always carried out on female mice which were specific pathogen-free (S. P. F.),
# either of the line DBA/2JIco
# or of the line B6 D2 F1/JIco (first generation hybrids between the lines C57BL/6 and DBA/2).
# On the day of the graft (by convention day 0=D0) an inoculum of 1×10^5 tumor cells in a volume of 0.2 ml is administered to each mouse by the intraperitoneal route (I.P.).
# This inoculum is prepared by diluting ascites fluid taken from the peritoneum of a donor female mouse in NCTC 109 medium (Eurobio Laboratories, Paris, France), counting of the cells in a MALASSEZ cell under a microscope and adjustment of the concentration to 5×10^5cells […] by means of the same medium.
# The tumor line is an American strain of the line L1210.
# After the tumor graft, the mice are distributed at random in cages of 5 animals. Subsequently, these cages containing 5 mice are themselves distributed at random into a control group (control) and groups treated with the I.C. products.
# The doses of the products of the invention used in the different experiments are expressed in milligrams per kilogram of body weight.
# The products to be injected were dissolved in isotonic sodium chloride solution.
# 2 protocols for treatment were used in the different experiments:
# either a single injection on D1, by the intraperitoneal (I.P.) or intravenous (I.V.) route,
# or 3 I.P. injections on D1, D5, D9.
# In each experiment the animals of the control group received 1 or more injections, depending on the experimental protocol used, by the same route (I.P. or I.V.) of the same volume (0.2 ml/20 g) of the vehicle without the active principle (isotonic sodium chloride solution).
# the number and percentage of the total of the mice surviving to D60,
# the T/C×100 for the treated groups.
# T representing the mean survival time of the mice in the treated group,
# C representing the mean survival time of the mice in the control group (controls).
# [2] = toxicological results, single I.P. dose, DL0 and DL50; assay type: in vivo, mouse; conditions: mice
# From the text: DL0, DL50, single I.P. dose administered to the aforementioned strains of mice.
# [3] = system: L 1210 cells; test: cytotoxic index after 1 h contact, potential "in vivo" activity (TEST N° 2); assay type: cell-based, mouse
# Protocol: The test used is that of W. J. Durkin et al. Cancer Research 1979, 39, 402-407, modified.
# All the nitrosoureas were dissolved in 70% ethanol in the proportion of 10 mg/ml.
# 2--Determination of the potential "in vivo" activity
# L 1210 cells, under conditions similar to the preceding protocol, were contacted for 1 hour with a dose of the various products tested corresponding to a cytotoxic index equal to 20%. After this time, the cells were placed in culture medium not containing nitrosoureas and incubated at 37° C. After 48 hours, the cytotoxic index was determined.
# [4] = system: leucemia L 1210 IGR; test: "in vivo" activity on leucemia L1210 IGR, 20 mg/kg i.p. days 1, 5, 9; parameters: species or system mouse
# Protocol: Female DBA2 mice were used, about 8 weeks old and weighing about 20 g from the IFFA-CREDO center (les Oncins, 69210 Arbresles)
# At day "0", each mouse received intraperitoneally an inoculum of […] in a volume of 0.2 ml.
# After tumoral graft, the mice were distributed at random into 21 cages of 5 animals, themselves then distributed, by drawing lots, into 6 experimental series. Within these 6 experimental series, there were constituted a control series of 6 cages and 5 experimental series of 3 cages each, and of which the mice were intended to be treated by the compounds of the invention.
# (§1) The protocol was identical for the 3 tumors and the 5 compounds of the invention to be tested.
# (§2) As regards the experimental series to be treated, each mouse received, at days 1, 5 and 9, intraperitoneally, a dose of 20 mg/kg of the compound to be tested, in the volume of 0.2 ml of neutralized and sterilized olive oil.
# (§3) As regards the control series, each mouse received, intraperitoneally, 0.2 ml of neutralized and sterilized olive oil.
# (§4) The results are expressed by the relative increase in survival (T/C×100) calculated from the average survival of the treated animals (T) and that of the control animals (C)
# (§5) The mice surviving more than 60 days were considered as cured.
# (§6) The figures between parentheses indicate the percentage of cured mice.
# [5] = system: Tumor LEWIS 3LL; test: "in vivo" activity on Lewis tumor, 20 mg/kg i.p. days 1, 5, 9; parameters: species or system mouse
# Protocol: Procedure was under the conditions which have just been described previously with regard to melanoma B16, by injecting the tumor cells, in the proportion of 2×10^6 per mouse, in the volume of 0.2 ml.
# as §1, §2, §3, §4, §5, §6
# [6] = system: melanoma B16; test: "in vivo" activity on melanoma B16, 20 mg/kg i.p. days 1, 5, 9; parameters: species or system mouse
# Protocol: Female C57 B 1/6 mice were used, about 8 weeks old and weighing about 20 g, from the IFFA-CREDO center.
# At day "0", each mouse received intraperitoneally an inoculum of 2×10^6 tumor cells in a volume of 0.5 ml.
# After tumoral graft, distribution at random was carried out as indicated above, to obtain a control series of 8 cages and 5 experimental series of 4 cages each, and of which the mice were intended to be treated by the compounds of the invention.
# as §1, §2, §3, §4, §5, §6
# [7] = system: L 1210 USA Tumor; test: "in vivo" activity on L1210 U.S.A. tumor, 5 mg/kg i.p. days 1, 5, 9; parameters: species or system mouse
# Protocol: The tumor L1210 U.S.A. is more resistant than tumor L1210 IGR.
# (§7) The experiments were identical to those described in preceding paragraph 4 but lower doses were used.
# There were inoculated into the mice, 10^5 tumor cells of L1210 U.S.A. intraperitoneally in a volume of 0.2 ml.
# At days 1, 5 and 9, the compounds of the invention under test were injected intraperitoneally, at a lower dose than that used in the experiment described at 4, that is to say in the proportion of 5 mg/kg.
# [8] = system: L 1210 IGR TUMOR; test: "in vivo" activity on L1210 IGR tumor, 5 mg/kg i.p. days 1, 5, 9; parameters: species or system mouse
# Protocol: as §7
# The same protocol was carried out with the tumor L1210 IGR, by inoculating 10^5 tumor cells of L1210 IGR intraperitoneally in the volume of 0.2 ml then, at days 1, 5 and 9, there were injected intraperitoneally 5 mg/kg of each of the compounds to be tested.
# [9] = system: colon carcinoma C38; test: activity on colon carcinoma C38 implanted subcutaneously, I.P. days 2 and 9; assay type: in vivo, mouse; conditions: I.P.
# Protocol: A tumor fragment is implanted on day 0 in female B6 D2 F1 mice (19-22 g). The treatment with all of the products is administered by the I.P. route on days 2 and 9 (which is a delayed treatment). The weight of the tumors is calculated on day 20.
# [10] = DBA2, I.P. D1, D5, D9, 3×2.5 mg/kg
# [11] = DBA2, I.P. D1, D5, D9, 3×10 mg/kg
smiles,measurement,setting,value
"CO[C@@H]1O[C@@H](C)C[C@@H](NC(=O)N(CCCl)N=O)[C@@H]1O [IC. 85-1626, methyl 3-[3-(2-chloroethyl) 3-nitrosoureido] 3,4,6-trideoxyα-L-xylo-hexopyranoside]",Number of survivors on D60,"[1]; DBA2, I.P. D1, 1×20 mg/kg",3/10
same,Number of survivors on D60,[1]; [10],0/10
same,T/C,[1]; [10],150
same,Number of survivors at D60,[1]; [11],3/10
same,T/C,[1]; [11],275
same,DL0,[2],≥ 20 mg/kg
same,LD50,"[2]; mouse, in vivo, ip",~40 mg/kg
"CO[C@@H]1C[C@@H](NC(=O)N(CCCl)N=O)[C@H](O)[C@@H](CNC(=O)N(CCCl)N=O)O1 [IC 1374, Methyl bis 3,6-[3-(2-chloroethyl) 3-nitrosoureido] 2,3,6-tridesoxy α-D-arabinohexopyranoside]",CYTOTOXIC INDEX,"[3]; 1 hour contact at dose giving 20% index, read after 48 hours",71%
same,"POTENTIAL ""IN VIVO"" ACTION",[3]; active if cytotoxic index ≥40%,"+ (if the cytotoxic index was equal to or greater than 40%, the product concerned would be active ""in vivo"" in the mouse)"
same,relative increase in survival (T/C×100),[4],.infin. (The sign 00 indicates that 50% at least of the mice were cured)
same,percentage of cured mice,[4]; surviving more than 60 days,67%
same,relative increase in survival (T/C×100),[5],.infin. (The sign 00 indicates that 50% at least of the mice were cured)
same,percentage of cured mice,[5]; surviving more than 60 days,75%
same,relative increase in survival (T/C×100),[6],246
same,percentage of cured mice,[6]; surviving more than 60 days,10%
same,Average survival ±2 σm,[7],"12,9 ± 0,55"
same,Median survival,[7],"13,1"
same,T/C × 100 (average survival),[7],150
same,T/C × 100 (median survival),[7],151
same,Average survival ±2 σm,[8],"17,1 ± 2,10"
same,Median survival,[8],"16,75"
same,T/C × 100 (average survival),[8],189
same,T/C × 100 (median survival),[8],185
"CO[C@H]1O[C@H](C)C[C@H](NC(=O)N(CCCl)N=O)[C@H]1O [IC. 85-1590, methyl 3-[3-(2-chloroethyl) 3-nitroso-ureido] 3,4,6-trideoxyα-D-xylo-hexopyranoside]",DL0,[2],≥ 25 mg/kg
"CN(C)S(=O)(=O)CCNC(=O)N(CCCl)N=O [TCNU, reference compound]",Number of mice without tumor/total,[9]; 7.5 mg/kg/inj. days 2 and 9,2/10
same,T/C,[9]; 7.5 mg/kg/inj. days 2 and 9,65%
same,Weight of the tumor on day 20,[9]; 7.5 mg/kg/inj. days 2 and 9,266 mg
same,Number of mice without tumor/total,[9]; 15 mg/kg/inj. days 2 and 9,7/10
same,T/C,[9]; 15 mg/kg/inj. days 2 and 9,0%
same,Weight of the tumor on day 20,[9]; 15 mg/kg/inj. days 2 and 9,0 mg
same,dead mice (remarks),[9]; 30 mg/kg/inj. days 2 and 9,10
